The NIST ThermoML archive (doi:10.1016/j.jct.2014.08.020)
± gives the expanded uncertainty stated by the source.

Tests used:
[1] = molar enthalpy of vaporization or sublimation; conditions: 298.15 K; Liquid; Static calorimetry
[2] = molar heat capacity at constant pressure; conditions: 300.6 K; 101.33 kPa; Liquid; Drop calorimetry

Row | molar enthalpy [1] [kcal/mol] | molar heat capacity at constant pressure [2] [J/K/mol] | SMILES
1 | 13.8 ± 0.237 |  | CCn1ccnc1 [1-ethyl-1H-imidazole]
2 | 19.4 ± 0.335 | 382.21 ± 23 | CCCCCCCCn1ccnc1 [1-octylimidazole]
3 | 15.3 ± 0.153 |  | CCCCn1ccnc1 [1-butylimidazole]
